Experiments:
[1] = target: T1, Amine oxidase [flavin-containing] B (Homo sapiens, UniProt P27338); assay: Inhibition of human recombinant MAO-B using kynuramine as substrate incubated for 20 mins measuring increase in emission signal at 400 nm multimode plate reader assay
T1 sequence (P27338 whole entry): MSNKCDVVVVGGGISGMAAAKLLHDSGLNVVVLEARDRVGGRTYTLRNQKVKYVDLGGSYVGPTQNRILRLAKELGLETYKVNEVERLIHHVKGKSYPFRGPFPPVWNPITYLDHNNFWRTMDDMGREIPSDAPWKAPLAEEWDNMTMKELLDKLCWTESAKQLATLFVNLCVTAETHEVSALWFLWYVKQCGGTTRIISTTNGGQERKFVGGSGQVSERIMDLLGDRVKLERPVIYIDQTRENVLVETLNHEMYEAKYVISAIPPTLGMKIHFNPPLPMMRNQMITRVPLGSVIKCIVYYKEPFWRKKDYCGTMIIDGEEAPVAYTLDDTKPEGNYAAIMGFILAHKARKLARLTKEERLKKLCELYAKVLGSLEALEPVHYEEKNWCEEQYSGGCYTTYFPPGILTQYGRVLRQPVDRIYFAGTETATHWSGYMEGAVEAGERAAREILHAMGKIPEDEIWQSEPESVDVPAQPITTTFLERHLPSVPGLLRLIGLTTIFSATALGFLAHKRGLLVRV

Homo sapiens = species: Homo sapiens; assay: Selectivity index, ratio of IC50 for recombinant human MAO-A to IC50 for recombinant human MAO-B
[2] = target: T2, Amine oxidase [flavin-containing] A (Homo sapiens, UniProt P21397); assay: Inhibition of human recombinant MAO-A […] as incubated for 20 mins measuring increase in emission signal at 310 nm multimode plate reader assay
T2 sequence (P21397 whole entry): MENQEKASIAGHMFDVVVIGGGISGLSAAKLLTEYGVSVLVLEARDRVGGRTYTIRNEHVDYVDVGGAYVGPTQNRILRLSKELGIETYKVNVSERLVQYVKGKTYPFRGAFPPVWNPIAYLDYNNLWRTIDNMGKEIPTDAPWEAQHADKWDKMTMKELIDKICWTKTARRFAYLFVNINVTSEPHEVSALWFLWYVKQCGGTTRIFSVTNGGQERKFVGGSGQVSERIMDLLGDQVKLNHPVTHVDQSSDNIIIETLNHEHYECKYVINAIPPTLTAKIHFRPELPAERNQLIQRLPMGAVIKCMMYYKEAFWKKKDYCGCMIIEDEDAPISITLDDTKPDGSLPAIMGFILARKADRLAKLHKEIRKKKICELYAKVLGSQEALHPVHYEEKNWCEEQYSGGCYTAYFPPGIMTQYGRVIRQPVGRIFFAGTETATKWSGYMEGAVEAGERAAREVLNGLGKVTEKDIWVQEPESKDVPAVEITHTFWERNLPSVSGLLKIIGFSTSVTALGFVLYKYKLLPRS

[3] = target: T1, Amine oxidase [flavin-containing] B; assay: Mixed type inhibition of human recombinant MAO-B by Lineweaver-Burk plot analysis

Structure (SMILES)	IC50 [1] [µM]	Selectivity Index (Homo sapiens)	IC50 [2] [µM]	Ki [3] [µM]
COc1ccc2occ(/C=C/c3ccc(N(C)C)cc3)c(=O)c2c1	0.23	257	59	
COc1ccc2occ(/C=C/c3ccc(OC)c(OC)c3)c(=O)c2c1	0.8	76	61	
CN(C)c1ccc(/C=C/c2coc3ccccc3c2=O)cc1	0.048	875	42	
COc1ccc(/C=C/c2coc3ccccc3c2=O)cc1OC	0.16	206	33	
COc1cc(/C=C/c2coc3ccccc3c2=O)cc(OC)c1OC	0.23	291	67	
COc1ccc2occ(/C=C/c3cc(OC)c(OC)c(OC)c3)c(=O)c2c1	2.5	> 40	> 100	
COc1ccc2occ(/C=C/c3ccc(O)cc3)c(=O)c2c1	0.33		8.7	
COc1ccc(/C=C/c2coc3ccc(OC)cc3c2=O)cc1	0.15	233	35	
COc1ccc2c(=O)c(/C=C/c3ccc(O)cc3)coc2c1	0.047		0.022	
O=c1c(/C=C/c2ccc(O)cc2)coc2ccccc12	0.037	70	2.6	
COc1ccc2occ(/C=C/c3ccccc3)c(=O)c2c1	0.075	33	2.5	

Now those with a lower IC50 [1], led by results:

IC50 [1] [µM]	Selectivity Index (Homo sapiens)	IC50 [2] [µM]	Ki [3] [µM]	Structure (SMILES)
0.034	11	0.38		COc1ccc2occ(/C=C/c3ccc(F)cc3)c(=O)c2c1
0.033	576	19		COc1ccc2c(=O)c(/C=C/c3ccc(OC)c(OC)c3)coc2c1
0.029	> 3400	> 100		COc1ccc(/C=C/c2coc3ccccc3c2=O)cc1
0.028	146	4.1		COc1ccc2occ(/C=C/c3ccc(Cl)cc3)c(=O)c2c1
0.027	> 3700	> 100	0.018	O=c1c(/C=C/c2ccccc2)coc2ccccc12
0.021	348	7.3		COc1ccc2c(=O)c(/C=C/c3cc(OC)c(OC)c(OC)c3)coc2c1
0.016	8	0.12		COc1ccc2c(=O)c(/C=C/c3ccccc3)coc2c1
0.0086	72	0.62		O=c1c(/C=C/c2ccc(F)cc2)coc2ccccc12
0.0068	10	0.069		COc1ccc(/C=C/c2coc3cc(OC)ccc3c2=O)cc1
0.0061	80	0.49		COc1ccc2c(=O)c(/C=C/c3ccc(N(C)C)cc3)coc2c1
0.0059	66	0.39		O=c1c(/C=C/c2ccc(Cl)cc2)coc2ccccc12
0.0031		0.014		COc1ccc2c(=O)c(/C=C/c3ccc(F)cc3)coc2c1
0.0022	11	0.025	0.0015	COc1ccc2c(=O)c(/C=C/c3ccc(Cl)cc3)coc2c1

Source: ChEMBL document CHEMBL4811301, “Synthesis and biological evaluation of 3-styrylchromone derivatives as selective monoamine oxidase B inhibitors” (Bioorg Med Chem, 2021)
